Columns and labels:
Format in all cases: cell-based, human
ML-2 = test: Caspase 8/FLICE activity colorimetric assay; settings: compounds at 1 μM, 24, 48 and 72 hours
Protocol: (§1) Next, tests were performed to see if caspase 8 activation alone is sufficient to mediate IL-1β induction. […] To ensure caspase 8 activity was captured at an appropriate time frame, caspase 8 activation levels at 24, 48 and 72 hours were measured (FIGS. 3C and 3D) using a caspase 8/FLICE activity colorimetric assay.

MV4-11 = test: Caspase 8/FLICE activity colorimetric assay; settings: compounds at 1 μM, 24, 48 and 72 hours
Protocol: as §1

MOLM-13 = test: Cytokine induction, electrochemiluminescence assay of culture supernatant; settings: MOLM-13
Protocol: For cytokine assays on AML cell lines, cells were seeded at 1 million per mL, 3 mL per well of 6-well plates and allowed set overnight. The next day, cells were treated with 3 μL 1000× working stock of compounds of interest.
Human AML cell lines, HL-60 (CCL-240), KG-1 (CCL-246), ML-2 (ACC-15), MOLM-13 (ACC-554), MV-4-11 (CRL-9591), NOMO-1 (ACC-542), TF-1 (CRL-2003), THP-1 (TIB-202), and U937 (CRL-1593) were obtained from American Type Culture Collection (ATCC; Manassas, VA) or Deutsche Sammlung von Mikroorganismen and Zellkulturen (DSMZ, Germany) cell banks. Acute myeloid leukemia cell lines were maintained in RPMI-1640 (ATCC Cat No. 30-2001) containing 20% fetal bovine serum (FBS) (Corning Cat No. 35-010-CV) and maintained in humidified incubators at 5% carbon dioxide.
IL-1α (Meso Scale Disgnostics, Cat No. K151RBD), IL-1β (Meso Scale Disgnostics, Cat No. K151QPD), IL-1RA (Meso Scale Disgnostics, Cat No. K151WTD), IL-18 (Meso Scale Disgnostics, Cat No. K151VJK), TNFa (Meso Scale Disgnostics, Cat No. K151QWD), VEGF Meso Scale Disgnostics, Cat No. K151RHD) levels were measured by (Meso Scale Disgnostics assay kits following manufacturer's instructions. Measurements were made on a MESO™ SECTOR S 600 plate reader (Meso Scale Disgnostics).
Cell proliferation (CTG) and caspase 3/7 activation (IncuCyte) were analyzed using GraphPad Prism. Electrochemiluminescence data was analyzed using MSD Discovery Workbench platform.
The level of intracellular pro IL-1β and released IL-1β in eight AML cell lines and normal PBMC treated with a titration of Compound 1 over a 48 hour period was assessed. (see FIGS. 1A-1C, Table 2). Supernatant IL-1βb level was induced over 5 fold in 6 out of 8 AML cell lines and normal PBMC upon Compound 1 treatment compared to DMSO (FIGS. 1A, 1B, and 1C, Table 2).

## O=C1CCC(N2Cc3cc(CNC(=O)C(F)(F)c4ccc(Cl)cc4)ccc3C2=O)C(=O)N1 (stereo not drawn) [Compound 1, 2-(4-chlorophenyl)-N-((2-(2,6-dioxopiperidin-3-yl)-1-oxoisoindolin-5-yl)methyl)-2,2-difluoroacetamide]
ML-2
  Caspase 8 activation level: not the most efficient caspase 8 activating compound across all time points tested
MV4-11
  Caspase 8 activation level: not the most efficient caspase 8 activating compound across all time points tested
MOLM-13
  IL-1β induction: 0.00
